pIC50: −log10 of the molar value.
What was measured:
Assay type in all cases: cell-based
IRAK4 = molecular target: T1, IRAK4 (Homo sapiens, UniProt Q9NWZ3); assay: IRAK4 degradation in THP-1 cells (Western blot); conditions: 24 hours
T1 construct: The supernatant was carefully collected and analyzed for IRAK4 protein levels by immunoblotting; host or cells: THP-1
T1 sequence (Q9NWZ3 1-460): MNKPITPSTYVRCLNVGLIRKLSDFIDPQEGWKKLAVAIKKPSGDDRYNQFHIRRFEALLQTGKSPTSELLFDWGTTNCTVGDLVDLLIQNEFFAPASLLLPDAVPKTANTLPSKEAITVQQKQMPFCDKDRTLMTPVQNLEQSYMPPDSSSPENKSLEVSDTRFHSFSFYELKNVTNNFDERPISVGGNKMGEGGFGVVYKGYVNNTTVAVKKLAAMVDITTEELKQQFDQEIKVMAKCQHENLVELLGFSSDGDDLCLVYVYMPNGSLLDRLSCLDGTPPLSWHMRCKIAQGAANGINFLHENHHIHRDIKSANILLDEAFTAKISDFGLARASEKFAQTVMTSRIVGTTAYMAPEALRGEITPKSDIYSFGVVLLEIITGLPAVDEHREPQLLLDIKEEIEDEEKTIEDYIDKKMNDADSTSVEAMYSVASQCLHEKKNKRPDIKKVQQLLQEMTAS
Experimental: 2 mL of THP-1 cells were seeded into a 6-well cell culture plate at a density of 4 × 10^5 cells/well. After adding 1 µL of compound in dimethyl sulfoxide solution (final concentration 10-10,000 nM) and continuing to incubate at 37°C, 5% CO2 for 24 hours, cells were collected into 2 mL centrifuge tubes and centrifuged at 125 g at 4°C for 5 minutes. The cell pellet was washed once with 1 mL of pre-chilled 1× DPBS and resuspended and lysed in 50 µL of RIPA lysis buffer (P0013B, Beyotime) and 1× protease inhibitor cocktail (P1005, Beyotime). After incubation on ice for 20 minutes, the cells were centrifuged at 14,000 g at 4°C for 30 minutes. The supernatant was carefully collected and analyzed for IRAK4 protein levels by immunoblotting.
Western blotting: The total protein concentration in the collected cell lysate supernatant was determined using the BCA protein concentration assay kit (enhanced) (P0009, Beyotime). Based on the total protein concentration detected by BCA, the protein concentration was adjusted to 1 µg/µL using RIPA lysis buffer and 5× SDS-PAGE protein loading buffer (MB01015, GenScript). The protein was denatured in a 95°C water bath for 5 minutes. After denaturation, the condensed water on the centrifuge tube wall was collected by centrifugation and used as the loading sample. […] Electrophoresis was performed at 100 V for 20 minutes, then switched to 150 V for 40 minutes. After electrophoresis, the proteins in the SDS-PAGE gel were transferred to a PVDF membrane and transferred at a constant voltage of 100 V for 60 minutes. After transfer, the PVDF membrane corresponding to the IRAK4 protein and internal reference protein was cut and incubated in 1× QuickBlock blocking buffer (P0252, Beyotime) for 30 minutes at room temperature on a shaker. […] After incubation, the PVDF membrane was washed three times with 1× TBST buffer for 5 minutes each. […] The membrane was then washed again three times with 1× TBST buffer for 5 minutes each. Finally, the membrane was imaged using a dual-color infrared laser imaging system (Odyssey DLx, LI-COR). Protein maps were analyzed for grayscale values using Image Studio Lite software. The grayscale correction value for each sample was calculated using the formula: grayscale correction value = grayscale value of the target protein / grayscale value of the corresponding internal reference. The grayscale correction values of the compound group and the control group were then compared to calculate the degradation rate of the compound.

TNFα = assay: LPS-induced TNFα secretion by PBMC (HTRF detection); conditions: Homo sapiens, hPBMC, 20 hours compound then LPS 200 ng/mL for 5 hours, read-out: IC50 (inhibition of LPS-induced TNFα)
Experimental: (§1) After thawing, cryopreserved hPBMC (FPB003F-C, Shanghai OriBiotech) cells were resuspended in RPMI 1640 medium (30-2001,ATCC) containing 10% inactivated FBS (10099141C, Gibco) and cultured overnight at 37°C and 5% CO2. The next day, hPBMC cells were seeded in a 96-well cell culture plate at a density of 2 × 10^5 cells/well/100 µL (2 × 10^6 cells/mL), and 100 µL of compound in dimethyl sulfoxide solution (final concentration 0.0064-2500 nM) was added. […] The cell plate was placed in a 37°C, 5% CO2 incubator for 5 hours, and then centrifuged at 1000 rpm for 15 minutes. 100 µL of cell supernatant was collected from each well for cytokine concentration testing, which was tested immediately or frozen at -80°C for testing.
The TNFα concentration in the supernatant of LPS-induced THP-1 cells was determined using the TNF […] detection kit (62[…], PerkinElmer).
TNFα standard solutions of varying concentrations were prepared according to the product instructions, ranging from 0 to 2500 pg/mL. Equal volumes of Eu Cryptate antibody (1×) and d2 antibody (1×) were used to prepare the antibody mixture. 16 µL of standard solution or sample supernatant and 4 µL of the antibody mixture were added to each well of a 384-well white plate. The mixture was centrifuged at 800 rpm for 1 minute and incubated at room temperature for 2 hours. The absorbance at 620 nm and […] was read using a microplate reader (SPARK m1000pro, TECAN). A standard curve was plotted using the signal values of each TNFα standard solution. The TNFα concentration in each sample was determined based on the corresponding concentration of the signal value on the standard curve. The inhibitory rate of the compound on LPS-induced TNFα expression in THP-1 cell supernatants at different drug concentrations was calculated based on the TNFα concentration. The inhibition rate data were plotted in GraphPad Prism 8.0 software, and the IC50 value was calculated. Inhibition Rate = [1−(OD(Sample)−OD(Blank))/(OD(Control)−OD(Blank))] × 100% [formula] Table 9: Degradation effect of example compounds on IRAK4 in PBMC cells

IL-6 = assay: LPS-induced IL-6 secretion by hPBMC (ELISA); conditions: Homo sapiens, 20 h compound then LPS 200 ng/mL for 5 h; for inhibition at […]: 2500nM, read-out: Inhibition Rate of IL-6 (2500nM)
Experimental: as §1, with “OriBiotech.)” for “OriBiotech)”, “(30-2001, ATCC)” for “(30-2001,ATCC)”, “h,” for “hours,”, “min.” for “minutes.”, “awhich” for “which”
The IL-6 concentration in the supernatant of hPBMC cells induced by LPS was determined using a Human IL-6 ELISA kit (D6050, RD).
IL-6 standard solutions of varying concentrations were prepared according to the product instructions, ranging from 0 to 300 pg/mL. 100 µL of Assay Diluent RD1W and 100 µL of standard solution or sample supernatant were added to a pre-coated ELISA plate and incubated at room temperature for 2 hours. After washing the plate four times with 1× wash buffer, then 200 µL of Human IL-6 Conjugate was added and incubated at room temperature for 2 hours. After washing the plate four times with 1× wash buffer, then 200 µL of Substrate Solution was added and incubated at room temperature for 20 minutes. Finally, 50 µL of Stop Solution was added to terminate the reaction. The absorbance at 450 nm and 570 nm were read using a microplate reader (SPARK m1000pro, TECAN). The standard curve was plottd by the signal value of each concentration of IL-6 standard solution, and the IL-6 concentration in each sample was determined according to the corresponding concentration of the signal value of each well on the standard curve. The inhibition rate of the compound on LPS-induced IL-6 in the hPBMC cell supernatant at different drug concentrations was calculated according to the IL-6 concentration. The inhibition rate data were plotted in GraphPad Prism 8.0 software to calculate the IC50 value. Inhibition Rate = [1−(OD(sample)−OD(blank))/(OD(control)−OD(blank))] × 100% [formula] Table 10: Inhibitory effect of Example compounds on LPS-induced IL-6 secretion by hPBMC

| IRAK4 degradation (10nM) (IRAK4) | IRAK4 degradation (100nM) (IRAK4) | pIC50 (TNFα) | SMILES | inhibition at […] (IL-6) [%] | inhibition at 0.02 µM (IL-6; 20nM, read-out: Inhibition Rate of IL-6 (20nM)) [%] |
| --- | --- | --- | --- | --- | --- |
| B (50% > degradation rate ≥ 20%) | B (50% > degradation rate ≥ 20%) | 7.10 | O=C1CCN(c2ccc3c(c2)OCC[C@H]2CN(C[C@H]4CC[C@@H](OC5CCN(C(=O)[C@H]6CC[C@H](n7cc(NC(=O)c8cnn9ccc(N%10C[C@H]%11C[C@@H]%10CO%11)nc89)c(C(F)F)n7)CC6)CC5)CC4)CCN32)C(=O)N1 [IR-P-1] | 87 |  |
| B (50% > degradation rate ≥ 20%) | B (50% > degradation rate ≥ 20%) | 6.74 | O=C1CCN(c2ccc3c(c2)OCC[C@@H]2CN(C[C@H]4CC[C@@H](OC5CCN(C(=O)[C@H]6CC[C@H](n7cc(NC(=O)c8cnn9ccc(N%10C[C@H]%11C[C@@H]%10CO%11)nc89)c(C(F)F)n7)CC6)CC5)CC4)CCN32)C(=O)N1 [IR-P-2] | 86 |  |
| A (a degradation rate ≥ 50%) | A (a degradation rate ≥ 50%) | 7.19 | O=C1CCN(c2ccc3c(c2)OCC[C@H]2CN(C[C@H]4CC[C@H](OC5CCN(C(=O)[C@H]6CC[C@H](n7cc(NC(=O)c8cnn9ccc(N%10C[C@H]%11C[C@@H]%10CO%11)nc89)c(C(F)F)n7)CC6)CC5)CC4)CCN32)C(=O)N1 [IR-P-3] | 89 | 63 |
| B (50% > degradation rate ≥ 20%) | A (a degradation rate ≥ 50%) | 6.85 | O=C1CCN(c2ccc3c(c2)OCC[C@@H]2CN(C[C@H]4CC[C@H](OC5CCN(C(=O)[C@H]6CC[C@H](n7cc(NC(=O)c8cnn9ccc(N%10C[C@H]%11C[C@@H]%10CO%11)nc89)c(C(F)F)n7)CC6)CC5)CC4)CCN32)C(=O)N1 [IR-P-4] | 84 |  |
| B (50% > degradation rate ≥ 20%) |  | 7.16 | O=C1CCN(c2ccc3c(c2)OC2(CC3)CN(CC3CCN(C(=O)[C@H]4CC[C@H](n5cc(NC(=O)c6cnn7ccc(N8C[C@H]9C[C@@H]8CO9)nc67)c(C(F)F)n5)CC4)CC3)C2)C(=O)N1 [IR-P-5] | 78 |  |
